Data from the supplement of paper PMC13380429.

How the values were obtained:
Details in all cases: 72 h
[1] = tested on: Caco-2; test: cell viability relative to DMSO; higher = less toxic
[2] = tested on: Calu-3; test: as above
[3] = tested on: HepG2; test: as above
[4] = tested on: U2OS; test: as above
[5] = tested on: Vero E6; test: as above
[6] = tested on: Caco-2; test: relative viability EC50 (midpoint between 100% and the lowest measured viability); higher = less toxic
[7] = tested on: Calu-3; test: as above
[8] = tested on: HepG2; test: as above
[9] = tested on: U2OS; test: as above
[10] = tested on: Vero E6; test: as above
[11] = tested on: Caco-2; test: drug sensitivity score (DSS) for viability; higher = more toxic; extreme values may be limits of the assay
[12] = tested on: Calu-3; test: as above
[13] = tested on: HepG2; test: as above
[14] = tested on: U2OS; test: as above
[15] = tested on: Vero E6; test: as above

Row | Structure (SMILES) | cell viability ([1]; 1 nM) [%] | cell viability ([1]; 10 nM) [%] | cell viability ([1]; 100 nM) [%] | cell viability ([1]; 1000 nM) [%] | cell viability ([1]; 10000 nM) [%] | cell viability ([2]; 1 nM) [%] | cell viability ([2]; 10 nM) [%] | cell viability ([2]; 100 nM) [%] | cell viability ([2]; 1000 nM) [%] | cell viability ([2]; 10000 nM) [%] | cell viability ([3]; 1 nM) [%] | cell viability ([3]; 10 nM) [%] | cell viability ([3]; 100 nM) [%] | cell viability ([3]; 1000 nM) [%] | cell viability ([3]; 10000 nM) [%] | cell viability ([4]; 1 nM) [%] | cell viability ([4]; 10 nM) [%] | cell viability ([4]; 100 nM) [%] | cell viability ([4]; 1000 nM) [%] | cell viability ([4]; 10000 nM) [%] | cell viability ([5]; 1 nM) [%] | cell viability ([5]; 10 nM) [%] | cell viability ([5]; 100 nM) [%] | cell viability ([5]; 1000 nM) [%] | cell viability ([5]; 10000 nM) [%] | relative viability EC50 [6] [µM] | relative viability EC50 [7] [µM] | relative viability EC50 [8] [µM] | relative viability EC50 [9] [µM] | relative viability EC50 [10] [µM] | drug sensitivity score [11] | drug sensitivity score [12] | drug sensitivity score [13] | drug sensitivity score [14] | drug sensitivity score [15]
1 | C[C@]12CCC(=O)C=C1CC[C@@H]1[C@@H]2CC[C@@]2(C)[C@H]1CC[C@]2(C)O [17-alpha-Methyltestosterone] | 99.2 | 89.5 | 90.4 | 98.8 | 102 | 108 | 97.1 | 114 | 106 | 115 | 103 | 90.8 | 91.5 | 96.8 | 101 | 97.6 | 96.1 | 104 | 101 | 97.1 | 92.6 | 97.4 | 94.4 | 91.9 | 105 | > 10 | > 10 | > 10 | > 10 | > 10 | 0 | 0 | 0 | 0 | 0
2 | Oc1ccc(C2(c3ccccc3F)CCC(F)(F)CC2)cc1 [AC-186] | 104 | 95 | 98.2 | 96.2 | 102 | 91 | 98.4 | 89.3 | 105 | 104 | 95.8 | 94.7 | 100 | 96.3 | 104 | 95.1 | 96.3 | 95.5 | 99.3 | 99 | 97.4 | 96.5 | 94.2 | 92.2 | 109 | > 10 | > 10 | > 10 | > 10 | > 10 | 0 | 0 | 0 | 0 | 0
3 | CC(C)OC(=O)N1CCC(Oc2ncnc3c2cnn3-c2ccc(S(C)(=O)=O)cc2F)CC1 [APD668] | 106 | 98.4 | 93.6 | 96.1 | 89.1 | 106 | 107 | 102 | 108 | 92.7 | 103 | 102 | 96.2 | 98.6 | 77.1 | 99.4 | 101 | 97.4 | 106 | 97.5 | 90.5 | 95.2 | 100 | 95.7 | 105 | > 10 | > 10 | > 10 | > 10 | > 10 | 0 | 0 | 1 | 0 | 0
4 | Cc1cc(Nc2nc(N[C@@H](C)c3ncc(F)cn3)ncc2Cl)[nH]n1 [AZD1480] | 93.2 | 102 | 95.5 | 102 | 84.2 | 106 | 91.6 | 99.7 | 96.6 | 90.8 | 98.6 | 101 | 96.5 | 87.9 | 89.4 | 99.7 | 102 | 102 | 101 | 97 | 94.3 | 96.2 | 95.9 | 100 | 97.9 | > 10 | > 10 | > 10 | > 10 | > 10 | 0.2 | 0 | 0.7 | 0 | 0
